Source: ChEMBL document CHEMBL1155791, “A novel Syk family kinase inhibitor: design, synthesis, and structure-activity relationship of 1,2,4-triazolo[4,3-c]pyrimidine and 1,2,4-triazolo[1,5-c]pyrimidine derivatives” (Bioorg Med Chem, 2008)
In brackets after ≈: the same amount, converted by molar mass.

What was measured:
[1] = biological target: Tyrosine-protein kinase SYK (Homo sapiens, UniProt P43405)
PBMC = assay: Suppression of IL2 production in human PBMC after 24 hrs by ELISA
[2] = biological target: T1, Tyrosine-protein kinase ZAP-70 (Homo sapiens, UniProt P43403); assay: Inhibition of human ZAP70
T1 sequence (P43403 whole entry): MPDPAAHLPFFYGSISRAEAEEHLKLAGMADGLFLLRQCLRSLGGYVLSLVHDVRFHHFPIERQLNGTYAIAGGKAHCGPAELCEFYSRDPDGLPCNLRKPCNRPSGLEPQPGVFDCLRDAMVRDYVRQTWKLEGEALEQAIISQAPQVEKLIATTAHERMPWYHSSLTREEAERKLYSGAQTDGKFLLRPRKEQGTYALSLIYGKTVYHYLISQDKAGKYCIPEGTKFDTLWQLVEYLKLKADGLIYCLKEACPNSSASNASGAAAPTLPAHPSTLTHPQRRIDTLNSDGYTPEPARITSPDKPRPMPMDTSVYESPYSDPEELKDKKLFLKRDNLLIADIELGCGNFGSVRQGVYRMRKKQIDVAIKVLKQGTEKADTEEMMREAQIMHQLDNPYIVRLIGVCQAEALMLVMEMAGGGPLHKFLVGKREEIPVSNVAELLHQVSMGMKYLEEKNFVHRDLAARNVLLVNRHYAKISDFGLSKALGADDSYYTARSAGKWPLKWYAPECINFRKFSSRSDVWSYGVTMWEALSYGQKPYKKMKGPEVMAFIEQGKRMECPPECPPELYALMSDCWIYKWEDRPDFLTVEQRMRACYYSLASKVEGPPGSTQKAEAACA

[3] = Aqueous solubility of the compound; type: physicochemical; conditions: water
[4] = biological target: Tyrosine-protein kinase Lck (Homo sapiens, UniProt P06239)
Sequence of Tyrosine-protein kinase Lck (P06239 whole entry): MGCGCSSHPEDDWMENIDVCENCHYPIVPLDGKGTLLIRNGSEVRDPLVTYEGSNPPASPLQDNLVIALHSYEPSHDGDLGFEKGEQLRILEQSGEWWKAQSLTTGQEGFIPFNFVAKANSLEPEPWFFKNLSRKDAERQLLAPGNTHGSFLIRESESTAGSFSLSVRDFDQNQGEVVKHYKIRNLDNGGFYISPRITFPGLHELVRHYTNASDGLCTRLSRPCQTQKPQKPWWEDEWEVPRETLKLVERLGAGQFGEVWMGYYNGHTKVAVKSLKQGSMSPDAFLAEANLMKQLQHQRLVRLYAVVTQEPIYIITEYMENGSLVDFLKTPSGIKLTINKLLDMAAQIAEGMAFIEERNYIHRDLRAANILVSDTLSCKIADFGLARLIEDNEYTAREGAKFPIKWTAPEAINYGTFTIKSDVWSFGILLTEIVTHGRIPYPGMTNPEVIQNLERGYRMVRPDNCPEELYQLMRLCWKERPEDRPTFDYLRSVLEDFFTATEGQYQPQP

[5] = biological target: Protein kinase C beta type (Homo sapiens, UniProt P05771)
Sequence of Protein kinase C beta type (P05771 whole entry): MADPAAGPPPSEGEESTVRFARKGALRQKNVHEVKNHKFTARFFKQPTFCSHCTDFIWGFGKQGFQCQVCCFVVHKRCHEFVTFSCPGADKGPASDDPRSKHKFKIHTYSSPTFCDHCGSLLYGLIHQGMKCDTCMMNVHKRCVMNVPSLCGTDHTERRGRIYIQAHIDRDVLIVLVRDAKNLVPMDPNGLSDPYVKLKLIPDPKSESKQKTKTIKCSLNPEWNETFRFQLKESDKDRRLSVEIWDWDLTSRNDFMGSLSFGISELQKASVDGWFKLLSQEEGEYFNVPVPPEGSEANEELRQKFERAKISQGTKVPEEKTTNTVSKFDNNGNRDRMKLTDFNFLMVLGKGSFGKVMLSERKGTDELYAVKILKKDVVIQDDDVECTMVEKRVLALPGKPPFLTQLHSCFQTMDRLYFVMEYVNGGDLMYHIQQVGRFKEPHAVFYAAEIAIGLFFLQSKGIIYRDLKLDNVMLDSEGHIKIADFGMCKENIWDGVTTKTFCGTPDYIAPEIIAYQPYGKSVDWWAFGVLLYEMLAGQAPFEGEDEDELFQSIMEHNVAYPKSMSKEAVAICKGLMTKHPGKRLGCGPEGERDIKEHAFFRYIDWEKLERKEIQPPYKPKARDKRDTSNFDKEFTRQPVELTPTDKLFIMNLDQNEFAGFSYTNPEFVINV

Blood = assay: Suppression of IL2 production in human whole blood after 24 hrs by ELISA

## COc1cc(Nc2nc(NCCN)n3cnnc3c2C(N)=O)cc(OC)c1
[1]
  IC50: 9 nM

## COc1cc(Nc2nc(NCCO)n3cnnc3c2C(N)=O)cc(OC)c1
[1]
  IC50: 6100 nM

## COc1cc(Nc2nc(NCC(C)(C)N)n3cnnc3c2C(N)=O)cc(OC)c1
[1]
  IC50: 150 nM

## COc1cc(Nc2nc(NCCCN)n3cnnc3c2C(N)=O)cc(OC)c1
[1]
  IC50: 7700 nM

## COc1cc(Nc2nc(NCC(=O)OC(C)(C)C)n3cnnc3c2C(N)=O)cc(OC)c1
[1]
  IC50: 79100 nM

## COc1cc(Nc2nc(N[C@H]3CCCC[C@H]3N)n3nc(-c4ccccc4Cl)nc3c2C(N)=O)cc(OC)c1 (relative stereo)
PBMC
  IC50: 1760 nM
[1]
  IC50: 50 nM

## COc1cc(Nc2nc(N[C@H]3CCCC[C@H]3N)n3ncnc3c2C(N)=O)cc(OC)c1 (relative stereo)
[2]
  IC50: 330 nM
[3]
  solubility: 42 µg/mL (≈ 98.5 µM)
[1]
  IC50: 4 nM
[4]
  IC50: 590 nM
[5]
  IC50: 2660 nM

## COc1cc(Nc2nc(N[C@H]3CCCC[C@H]3N)n3cnnc3c2C(N)=O)cc(OC)c1 (relative stereo)
[2]
  IC50: 120 nM
[3]
  solubility: 351 µg/mL (≈ 823 µM)
[1]
  IC50: 9 nM
[4]
  IC50: 180 nM
[5]
  IC50: 680 nM

## COc1cc(Nc2nc(N[C@H]3CCCC[C@H]3N)n3nc(-c4cccc(OC)c4)nc3c2C(N)=O)cc(OC)c1 (relative stereo)
[1]
  IC50: 120 nM

## COc1cc(Nc2nc(N[C@H]3CCCC[C@H]3N)n3nc(-c4ccccc4)nc3c2C(N)=O)cc(OC)c1 (relative stereo)
PBMC
  IC50: 210 nM
Blood
  IC50: 2000 nM
[3]
  solubility: 1.2 µg/mL (≈ 2.39 µM)
[1]
  IC50: 83 nM

## COc1cc(Nc2nc(N[C@H]3CCCC[C@H]3N)n3c(-c4ccccc4)nnc3c2C(N)=O)cc(OC)c1 (relative stereo)
[1]
  IC50: 15200 nM
